Data published in US4816560A, “Partially retro-inverted tuftsin analogues, method for the preparation thereof and pharmaceutical compositions containing them” (priority 1986, dated 1989).

System: peritoneal M.phi. from normal C3H/HeN mice
Experiment: macrophage (M.phi.) phagocytic stimulation assay (ingestion of killed yeast cells, Zymosan)
Assay type: cell-based
Text: The compounds of formula I, including the pharmaceutically acceptable esters, amides and salts, are active as immunostimulating agents. […] This assay, carried out in comparison with tuftsin, has been performed according to a modification of the method described by Bar-Shavit et al. in J.Cell.Physiol., 100, p.55 (1979). More particularly, peritoneal M.phi. from normal C3H/HeN mice are harvested by washing of the peritoneal cavity and purified by adherence as described in J.Immunol., 132, p.1987 (1984). Monolayers of 1×10^6 adherent peritoneal cells (95-98% of the monocyte-M.phi. series as judged by morphology and latex phagocytosis) are cultured for 20 h at 37° C. in RPMI-1640 medium supplemented with 50 μg/ml gentamycin, 25 mM HEPES buffer, 2 mM L-glutamine and 10% heat-inactivated fetal bovine serum (FBS). At the end of the incubation, M.phi. are washed and then exposed for 15 minutes at 37° C. to 1.3 ml/plate of culture medium either alone (blank) or containing tuftsin or a compound of the invention at different concentrations. A 1.5×10^8 cells/ml suspension of killed yeast cells (Zymosan)(0.2 ml) is then added to the plates. M.phi. are incubated for 60 minutes at 37° C., then washed, fixed (2% glutaraldehyde in PBS, 30 minutes, 4° C.) and stained. The percentage of phagocyting M.phi. and the number of ingested Zymosan cells is measured with an optical microscope equipped with a 100x immersion objective. In a representative experiment aimed at comparing the activity of tuftsin with that of the corresponding retro-inverso analogue of example 1, it has been observed that all M.phi. were capable of phagocyting zymosan in the above described conditions.
As the poor therapeutical applicability of tuftsin is mainly due to its low stability and to the consequent rapid loss of biological activity, the phagocytosis assay has been repeated comparing the activity of tuftsin and its retro-inverso analogue of example 1, stored for 14 days in solution at 4° C. […] At the concentration of 10^-6 M in fact the compound of Example 1 gave a number of ingested zymosan cells per 100 phagocyting macrophages of 1.8×10^3 (with an immunopotentiating effect corresponding therefore to 136% of the control).

[1] = peptide stored for 14 days in solution at 4° C., concentration 10^-6 M

For “{(2RS)-2-[N-(1-amino-2-hydroxy-propyl)carbamyl]-6-amino}-hexanoyl-L-prolyl- L-arginine [Example 1]”, the “number of ingested yeast cells (in words)” value (fresh peptide, linearly dependent on peptide concentration) was “significantly increased”, the “ingested zymosan cells, % of the control” value (peptide concentration 3×10^-7 M) was 170 % of the control and the “ingested zymosan cells per 100 macrophages” value (peptide concentration 3×10^-7 M, 15 min exposure, then 60 min with Zymosan at 37° C.) was 2.2×10^3 ingested zymosan cells per 100 macrophages. The “ingested zymosan cells per 100 phagocyting macrophages” value (peptide concentration 10^-6 M) was 2.44×10^3 ingested zymosan cells per 100 phagocyting macrophages, the “ingested zymosan cells, % of the control” value (peptide concentration 10^-6 M) was 188 % of the control and the “phagocytosis stimulation (in words)” value (peptide stored for 14 days in solution at 4° C.) was “still significant even if less than above”. For the same substance, the “immunopotentiating effect, % of the control” value [1] was 136 % of the control and the “ingested zymosan cells per 100 phagocyting macrophages” value [1] was 1.8×10^3 ingested zymosan cells per 100 phagocyting macrophages.
